Source: PubChem BioAssay (NCI)
Where “and” joins values, the source holds several entries; their conditions need not be identical. Equal values may be shown once.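 Test compounds were applied to cells in 96-well plates for 48 hours at 5 doses. GI50 marks 50% less growth. The concentration for full growth arrest is given as TGI.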

Experiments:
Assay in all cases: NCI tumour cell line growth inhibition, 48 h
HOP-18 NSCLC = system: HOP-18 NSCLC
KM20L2 colon = system: KM20L2 colon
M19-MEL melanoma = system: M19-MEL melanoma
XF 498 CNS = system: XF 498 CNS
RXF-631 renal = system: RXF-631 renal
SNB-78 CNS = system: SNB-78 CNS
DMS 273 small cell lung = system: DMS 273 small cell lung
DMS 114 small cell lung = system: DMS 114 small cell lung
MDA-N = system: MDA-N
P388 leukemia = system: P388 leukemia
P388/ADR leukemia = system: P388/ADR leukemia

Row | SMILES | TGI (HOP-18 NSCLC) [µM] | TGI (KM20L2 colon) [µM] | TGI (M19-MEL melanoma) [µM] | TGI (XF 498 CNS) | TGI (SNB-78 CNS) | TGI (DMS 273 small cell lung) [µM] | TGI (DMS 114 small cell lung) [µM] | TGI (MDA-N) [µM] | also measured
1 | NC1=NN(c2ccccc2)C(=O)C1C(=O)C(=O)Nc1cccc(C(F)(F)F)c1 (stereo not drawn) | > 100 | > 100 | > 100 | > 100 µM | > 100 µM | > 100 | > 100 | – | TGI (RXF-631 renal): > 100 µM
2 | N=c1oc2cc(O)c(O)cc2cc1C(N)=O | – | > 100 | > 100 | > 100 µM | > 100 µM | > 100 | > 100 | – | TGI (RXF-631 renal): > 100 µM
3 | Cc1ccc(C2=NN(C)COC2C(F)(F)F)cc1 (stereo not drawn) | > 100 | > 100 | > 100 | – | > 100 µM | > 100 | > 100 | – | TGI (RXF-631 renal): > 100 µM
4 | O=C(/C=C\c1cccc2ccccc12)c1ccc(Br)cc1 | 43.4 | 32.2 | 33.9 | – | 41.5 µM | 34.5 | 32.2 | – | –
5 | C/C(=N\[N+](C)(C)C)C(c1ccccc1)C1(c2ccccc2)C(c2ccccc2)=C1c1ccccc1 (stereo not drawn) | – | > 100 | > 100 | 50.4 µM | > 100 µM | > 100 | – | – | –
6 | COc1ccc(/C(Cl)=C(\C=O)c2cc(OC)c(OC)c(OC)c2)cc1OC | 58.4 | > 100 | > 100 | – | 88.1 µM | > 100 | 85.9 | > 100 | TGI (RXF-631 renal): 65.4 µM
7 | CCOC(=O)C(=O)Nc1ccc([N+](=O)[O-])cc1C#N | > 100 | – | > 100 | > 100 µM | – | – | > 100 | – | TGI (RXF-631 renal): > 100 µM
8 | CCC[CH2][Sn]([CH2]CCC)([O]C(=O)c1cccc(F)c1F)[O][Sn]([CH2]CCC)([CH2]CCC)[O]C(=O)c1cccc(F)c1F | 1.51 | 2.1 | 0.689 | 0.314 µM | 1.51 µM | 1.51 | 0.204 | 1.16 | GI50 (MDA-N): 0.223 µM; GI50 (HOP-18 NSCLC): 0.551 µM; GI50 (KM20L2 colon): 0.727 µM; GI50 (M19-MEL melanoma): 0.141 µM; GI50 (XF 498 CNS): 0.173 µM; GI50 (RXF-631 renal): 0.0409 µM; TGI (RXF-631 renal): 0.398 µM; GI50 (SNB-78 CNS): 0.139 µM; GI50 (DMS 273 small cell lung): 0.301 µM; GI50 (DMS 114 small cell lung): 0.0627 µM
9 | O=C(CCc1ccc(O)c(O)c1)c1ccc(O)c(O)c1O | – | – | – | – | – | – | – | 32.2 | –
10 | Cc1ccc(NC(=O)/C(=N/NC(=O)CC#N)C2C(=O)N(c3ccccc3)N=C2N)cc1C (stereo not drawn) | > 100 | > 100 | > 100 | > 100 µM | > 100 µM | > 100 | > 100 | – | –
11 | CC1=Cc2cc3[n-]c(cc4nc(cc5[n-]c(cc1n2)c(C)c5CCC(=O)O)C(CCC(=O)O)=C4C)cc3C.[Cu+2] | > 100 | > 100 | > 100 | > 1 µM and 26.5 µM | > 1 µM and 8.92 µM | > 55.9 | > 44.9 | > 100 | GI50 (MDA-N): 62.4 µM; GI50 (HOP-18 NSCLC): > 100 µM; GI50 (KM20L2 colon): > 100 µM; GI50 (M19-MEL melanoma): > 100 µM; GI50 (XF 498 CNS): > 1 µM and 10.2 µM; GI50 (SNB-78 CNS): > 1 µM and 2.07 µM; GI50 (DMS 273 small cell lung): > 39.8 µM; GI50 (DMS 114 small cell lung): > 1 µM and 11.5 µM
12 | CCOC(=O)CCc1c(C)c2ccc(O)cc2oc1=O | – | – | – | – | – | – | – | > 100 | –
13 | COc1ccc(C2c3cc4c(cc3OC(O)(CO)C2C(=O)O)OCO4)c(OC)c1OC (stereo not drawn) (tested in a mixture with another compound) | > 100 | > 100 | > 100 | > 100 µM | > 100 µM | > 100 | > 100 | – | –
14 | CC1(C)OC(=O)C=C(O)O1.CC1(C)OC(=O)C=C(O)O1.CCO.Oc1ccc2c(c1)CCC2.[Ti] | > 100 | > 100 | > 100 | – | > 100 µM | > 100 | > 100 | – | GI50 (HOP-18 NSCLC): > 100 µM; GI50 (KM20L2 colon): > 100 µM; GI50 (M19-MEL melanoma): > 100 µM; GI50 (SNB-78 CNS): > 100 µM; GI50 (DMS 273 small cell lung): > 100 µM; GI50 (DMS 114 small cell lung): > 100 µM
15 | CC1CC(C)C(=O)C(C(=O)CC2CC(=O)NC2=O)C1 (stereo not drawn) | > 100 | > 100 | > 100 | > 100 µM | > 100 µM | > 100 | > 100 | – | TGI (RXF-631 renal): > 100 µM
16 | CC1(C)CC2=NOS3=C2C(=NO3)C1c1ccccn1 (stereo not drawn) | – | – | – | – | – | – | – | 92.9 | –
17 | CCC(=O)Nc1ccc2c(c1)CN1C(=O)c3ccccc3C1=N2 | – | – | – | – | – | – | – | > 100 | GI50 (MDA-N): > 100 µM
18 | Nc1nc(F)nc2c1ncn2C1OC(COP(=O)(O)O)C(O)C1O (stereo not drawn) | 552 | > 1250 | 877 | 152 µM | 636 µM | 821 | 626 | 723 | TGI (P388 leukemia): 150 µM; TGI (P388/ADR leukemia): 160 µM
19 | OCC1OC(O)C(N=Cc2ccc3c(c2)OCO3)C(O)C1O (stereo not drawn) | – | – | – | – | – | – | – | > 100 | –

Row | SMILES | TGI (HOP-18 NSCLC) [µM] | TGI (KM20L2 colon) [µM] | TGI (M19-MEL melanoma) [µM] | TGI (XF 498 CNS) | TGI (SNB-78 CNS) | TGI (DMS 273 small cell lung) [µM] | TGI (DMS 114 small cell lung) [µM] | TGI (MDA-N) [µM] | also measured
20 | COc1ccc(C(=O)O)c2c(=O)c3ccccc3[nH]c12 | – | > 100 | > 100 | > 100 µM | > 100 µM | > 100 | – | – | –
21 | c1cncc(-c2cc(-c3cc(-c4cccnc4)n[nH]3)[nH]n2)c1 | – | – | – | – | – | – | – | > 100 | –
22 | O=C(Nc1ccc(N=Nc2ccccc2)cc1)Sc1ccccc1C(=O)O | – | > 100 | – | – | > 100 µM | > 100 | – | – | –
23 | CCC12CC[C@H](C#N)N3CCc4c(n(c5ccccc45)C(=O)C1)C32 (stereo partly drawn) | – | 35 | 73.2 | 36.5 µM | 51.9 µM | 19 | – | – | TGI (RXF-631 renal): 45.1 µM
24 | COC1=CC(C)C2C[C@H]3O[C@H](O)C[C@H]4C(C)C(=O)C(O)C([C@@]2(C)C1=O)[C@@]34C (stereo partly drawn) | > 100 | – | > 100 | – | > 100 µM | > 100 | > 100 | – | –
25 | O=C1CC(c2ccccc2)NCN1 (stereo not drawn) | > 100 | > 100 | > 100 | – | > 100 µM | > 100 | > 100 | – | –
26 | NC(=S)N/N=C1\C(=O)N(c2cccc([N+](=O)[O-])c2)C(=O)C1C(=O)Nc1cccc([N+](=O)[O-])c1 (stereo not drawn) | > 100 | > 100 | > 100 | – | > 100 µM | > 100 | > 100 | – | –
27 | N#CC(c1ccc(Cl)cc1)c1cccc(Cl)n1 (stereo not drawn) | – | > 100 | > 100 | 78.7 µM | > 100 µM | – | – | – | –
28 | O=C1C=CC(=O)N1c1ccc2c(c1)Cc1cc(NC(=O)C(F)(F)F)ccc1-2 | – | – | – | – | – | – | – | 32.5 | –
29 | c1cc2[se][se]c3c4cccc5[se][se]c(c(c1)c23)c54 | > 100 | > 100 | > 100 | > 100 µM | > 100 µM | > 100 | > 100 | – | –
30 | C/C=C/CP(=O)(c1ccccc1)c1ccccc1 | > 100 | > 100 | > 100 | > 100 µM | > 100 µM | > 100 | > 100 | – | –
31 | Cc1nc(Nc2ccccc2)sc1C(=O)NNC(N)=O | > 100 | > 100 | > 100 | > 100 µM | > 100 µM | > 100 | > 100 | – | –
32 | O[C@H]1[C@H]2[C@H](O)CCCN2C[C@H]1O | > 100 | > 100 | > 100 | > 100 µM | > 100 µM | > 100 | > 100 | – | –
33 | CC(=O)NC(Cc1c[nH]c2ccccc12)C(=O)O (stereo not drawn) | – | – | – | – | – | – | – | > 100 | –
34 | CC(=O)[CH-]C(C)=O.CC(=O)[CH-]C(C)=O.CC(=O)[CH-]C(C)=O.[Cl-].[Hf+4] | – | > 100 | – | – | – | > 100 | > 100 | – | GI50 (KM20L2 colon): > 100 µM; GI50 (DMS 273 small cell lung): > 100 µM; GI50 (DMS 114 small cell lung): > 100 µM
35 | CC(=O)Oc1cc2c(=O)oc3c(OC(C)=O)c(OC(C)=O)c(OC(C)=O)c4c(=O)oc(c1OC(C)=O)c2c34 | > 100 | > 100 | 40.6 | 76.5 µM | > 100 µM | > 100 | 58 | – | TGI (RXF-631 renal): 78.5 µM
36 | CO/C=C/c1cc2c(cc1C(OC)OC)OCO2 | – | > 100 | > 100 | 84.8 µM | > 100 µM | > 100 | > 100 | – | TGI (RXF-631 renal): > 100 µM
37 | O=C1C(Br)=C(c2ccccc2)C(c2ccccc2)=C1c1ccccc1 | 14.9 | 13.1 | 5.58 | 3.65 µM | 4.26 µM | 3.68 | 5.03 | 9.61 | TGI (RXF-631 renal): 13.1 µM
38 | CCOC(=O)c1ccc(C(O)CC(=O)OC(C)(C)C)[nH]1 (stereo not drawn) | – | – | – | – | – | – | – | 60.3 | GI50 (MDA-N): 17.8 µM
